{"source": "patent US20210220358A1", "about": "“1,3-THIAZOL-2-YL SUBSTITUTED BENZAMIDES FOR THE TREATMENT OF DISEASES ASSOCIATED WITH NERVE FIBER SENSITIZATION” (Bayer Aktiengesellschaft, priority 2018, published 2021)", "key": {"[1]": {"test_system": "healthy young males", "assay": "Adverse events (side effect profile) in multiple dose study", "assay_type": "in vivo, humans", "protocol": "(§1) In a first part of a two-part, double-blind, placebo-controlled, randomized, parallel-group study safety and tolerability of ascending repeated oral doses of the drug to be tested are assessed in 47 healthy male volunteers, followed by a second two-way crossover administration of four different doses in 40 patients with refractory chronic cough to assess safety, tolerability and efficacy for proof of concept.\n(§2) In the first part of the above-described protocol, 3-(5-Methyl-1,3-thiazol-2-yl)-5-[(3R)-tetrahydrofuran-3-yloxy]-N-{(1R)-1-[2-(trifluoromethyl)pyrimidin-5-yl]ethyl}-benzamide has been administered as multiple oral dose with increasing amounts starting from 10 mg per subject twice daily to 750 mg per subject twice daily in comparison with placebo to healthy young males. […] The treatment duration was 14 days.\nas §1, with “study, the” for “study”, “36” for “47”, “second part with a” for “second”, “in” for “in 40”\n(§3) The treatment duration was 14 days."}, "[2]": {"test_system": "healthy young males", "assay": "Taste assessment test (Taste Strips) during clinical studies", "assay_type": "in vivo, humans", "description": "The Taste Strips (Burghart Messtechnik GmbH) are a validated test method for ascertaining tasting performance (ISO certified). The following concentrations have been applied on the taste strips: sweet: 0.4, 0.2, 0.1, 0.05 g/ml sucrose; sour: 0.3, 0.165, 0.09, 0.05 g/ml citric acid; salty: 0.25, 0.1, 0.04, 0.016 g/ml sodium chloride; bitter: 0.006, 0.0024, 0.0009, 0.0004 g/ml quinine hydrochloride. The Strips were used to check the tasting performance of the whole mouth by placing a Taste Strip on the tongue and closing the mouth (the subject can move the tongue). […] Afterwards and between the 4 taste strips the mouth was rinsed with a sip of tap water according to individual needs. […] The taste strips were presented in a pseudo-randomized order (increasing concentration for each quality) and placed on the tongue. The subject's task was to choose one of five possible answers on a form (sweet, sour, salty, bitter, no taste). Before and after each testing, the mouth was rinsed with a sip of tap water according to individual needs. The lowest concentrations of each taste quality should have been identified by half of the healthy subjects only; the highest concentration should have been identified by approximately 100% of the subjects.\nThe taste strips were tested under blinded conditions to the subject. The number of correctly identified taste strips per subjects was counted with the maximum number achievable being 18 points (4 concentration/taste quality plus to blank paper strips)."}, "[3]": {"test_system": "healthy young males", "assay": "Taste related adverse events recorded during clinical studies", "assay_type": "in vivo, humans", "description": "Taste related adverse events describe adverse events that lead to a change in taste perception, e.g. dysgeusia (distortion of taste), hypogeusia (decrease in taste sensitivity) and ageusia (complete lack of taste).\nAdverse events (AE) in the context of a clinical study are defined as any untoward medical occurrence (i.e. any unfavorable and unintended sign including abnormal laboratory findings, symptom or disease) in a patient or clinical investigation subject after providing written informed consent for participation in the study. Therefore, an AE may or may not be temporally or causally associated with the use of a medicinal (investigational) product.\n3-(5-Methyl-1,3-thiazol-2-yl)-5-[(3R)-tetrahydrofuran-3-yloxy]-N-{(1R)-1-[2-(trifluoromethyl)pyrimidin-5-yl]ethyl}benzamide has been administered as single oral dose with increasing amounts starting from 10 mg per subject to 800 mg per subject in comparison with placebo to healthy young males.\nas §2, §3"}, "[4]": {"test_system": "human P2X3 and human P2X2/3 receptors", "settings": "cited from earlier work"}, "[5]": {"test_system": "treated subjects", "settings": "Clinical Phase II trials (Abdulqawi et al 2015; Strand et al 2015); cited from earlier work"}, "[6]": {"test_system": "human vagus nerve", "assay": "Vagal depolarization - inhibition of human vagus nerve by P2X3 inhibitors (grease-gap recording)", "settings": "TRPV4 agonist GSK 1016790A 300 nM; FIG. 1", "protocol": "The aim of the study is to test the effects of P2X3 antagonists on the deoplarisation of human vagus nerve as an ex vivo measure of blocking Chronic Cough. Human vagal tissue was dissected from 4 human lungs (obtained from healthy tissue donors).\nThe tissue was assayed using an O2/CO2 gassed, grease-gap recording system as described in Birrell et al, Am J Respir Crit Care Med. 2009, 180:1042-1047; Bonvini et al, J Allergy Clin Immunol. 2016, 138 (1), 249-261, Bonvini et al, Naunyn Schmiedebergs Arch Pharmacol. 2015, 388: 401-420. Briefly, after the tissue had stabilised it was exposed to two 2 minute challenges with a sub-maximal concentration of agonists (TRPV4 agonist GSK 1016790A, 300 nM). Sub-maximal concentration means a concentration where no full efficacy is observed, i.e. stimulation with the agonist within the dynamic range. Typical values are 80% of the maximal efficacy that can be achieved. The tissue was then exposed to vehicle (0.1 Vol % DMSO solution in Krebs buffer) or test compound for 10 minutes and then the tissue was re-challenged with agonist in the presence of the test compound. […] Only one experiment was performed on each piece of tissue and n=4 means tissue from 4 different lungs[…]. The data was electrophysiologically recorded as actual depolarisation levels and presented as mean percentage inhibition. Results can be found in FIG. 1."}, "[7]": {"settings": "multiple oral dose 10 mg to 750 mg twice daily, 14 days"}}, "data": [{"smiles": "Cc1cnc(-c2cc(O[C@@H]3CCOC3)cc(C(=O)N[C@H](C)c3cnc(C(F)(F)F)nc3)c2)s1", "note": "[3-(5-methyl-1,3-thiazol-2-yl)-5-[(3R)-tetrahydrofuran-3-yloxy]-N-{(1R)-1-[2-(trifluoromethyl)pyrimidin-5-yl]ethyl}benzamide]", "values": [{"measurement": "nausea", "setting": "[1]; multiple dose study, 50 mg dose", "value": "one case of nausea"}, {"measurement": "adverse events physical dependency, increased heart rate, xerostomia, constipation, drowsiness and sedation", "setting": "[1]; [7]", "value": "no such adverse events"}, {"measurement": "effects on taste perception based on the taste assessment test", "setting": "[2]; [7]", "value": "no relevant effects on taste perception (No relevant effects on taste perception in the context of the present invention mean that no effect on taste perception has been observed in at least 80% of subjects under treatment according to the above-described protocol over a period of 14 days)"}, {"measurement": "changes in taste scores under treatment", "setting": "[2]; single oral dose 10 mg to 800 mg", "value": "no significant or relevant changes in taste scores were observed"}, {"measurement": "effects on taste perception based on the taste assessment test", "setting": "[2]; single oral dose 10 mg to 800 mg, tests at baseline, 3 hrs and 6 days after drug administration", "value": "no relevant effects on taste perception were observed"}, {"measurement": "taste AE duration", "setting": "[3]; 1 subject treated with 200 mg twice daily, on day 11", "value": 2, "unit": "h"}, {"measurement": "influence on perception of taste based on spontaneously reported adverse events", "setting": "[3]; [7]", "value": "in few subjects only"}, {"measurement": "course of change in taste perception", "setting": "[3]; one subject treated with 200 mg twice daily", "value": "repeatedly occurring during continued treatment starting on treatment day 4 and lasting until 5 days after end of treatment"}, {"measurement": "taste AE duration", "setting": "[3]; one subject treated with 750 mg twice daily, on day 3", "value": 0.5, "unit": "h"}, {"measurement": "taste related adverse events", "setting": "[3]; single oral dose, 10 mg to 800 mg per subject, versus placebo", "value": "No taste related adverse were observed"}]}, {"smiles": "COc1cc(C(C)C)c(Oc2cnc(N)nc2N)cc1S(N)(=O)=O", "note": "[AF-219, 5-(2,4-diamino-pyrimidin-5-yloxy)-4-isopropyl-2-methoxy-benzenesulfonamide]", "values": [{"measurement": "selectivity P2X3 homomer versus P2X2/3", "setting": "[4]", "value": "P2X3 and P2X2/3 non-selective"}, {"measurement": "taste disturbances in treated subjects", "setting": "[5]", "value": "leads to taste disturbances in treated subjects"}, {"measurement": "effect size / efficacy in blocking vagus nerve depolarization, compared between compounds", "setting": "[6]", "value": "the effect size observed was the same"}]}]}
